pKi: −log10 of the molar value.
Assays:
[1] = system: rat adrenocortical mitochondria; test: Determination of pregnenolone in rat adrenocortical mitochondria; type: biochemical; conditions: for Amount of pregnenolone production (%): 10 μmol/L, DMSO assumed 100, n=5; for MBR agonist or antagonist as judged by effect on pregnenolone production: compared with DMSO treated group; for pregnenolone content relative to DMSO treated group: final concentration of the compound 1 μmol/L
[2] = system: stress-loaded male Wistar rats; test: Anti-stress effect: number of fecal pellets in psychological (water aversive) stress model; type: in vivo, rat; conditions: for number of fecal pellets: p.o., male Wistar rats, psychological (water aversive) stress, counted 1 h after start of stress loading, mean ± spread; for number of fecal pellets / effect on stress-induced increase in the number of fecal pellets: n=10/group; for effect on number of fecal pellets vs vehicle (significance, all doses): all tested p.o. doses vs vehicle, stress-loaded male Wistar rats; for effect on stress-induced increase in the number of fecal pellets: oral administration 30 min before stress loading, counted after 1 h
Experimental: Psychological stress was loaded to male Wistar rats (Brain Res., 641, 21-28 (1994)). Platform was located in the center of the container and water was collected to 10 cm in height. Thirty min after oral administration of vehicle or the compound, stress loading was started. One hour after, number of fecal pellets were counted (n=10/group). The rats without administration and stress-loading rarely defecated in 1 h.

MBR [3] = target: T1, MBR (Rattus norvegicus, UniProt P16257); test: Receptor binding: [3H]PK11195 binding to rat brain membrane preparation; design: The brains without cerebellum were homogenized in ice-cold 50 mmol/L Tris-HCl buffer (pH7.4); from tissue; host or cells: male Wistar rat brain without cerebellum, crude membrane pellet; conditions: competition with [3H]PK11195 1 nmol/L, Cheng & Prusoff
Experimental: Experiment 1: Receptor Binding
The affinity of the compound to MBR was determined using rat brain membrane preparation. Male Wistar rats were decapitated. After extirpation of the brain, cerebellum was removed. The brains without cerebellum were homogenized in ice-cold 50 mmol/L Tris-HCl buffer (pH7.4). The homogenate was centrifuged at 12,000 g for 20 min (4° C.), then supernatant was discarded. The residual pellet was washed in the same buffer. The pellet resuspended in 50 mmol/L Tris-HCl buffer (pH7.4) and adjusted to about 1 mg/mL was used as the rat brain membrane preparation for binding assay.
To determine the amount of non-specific binding, 20 μmol/L of PK11195 was added in place of DMSO and incubate for 1 h. The reaction was terminated by rapid filtration on GF/B filter soaked with 0.3% polyethyleneimine using cell harvester, then the filter was washed twice with 50 mmol/L Tris-HCl buffer (pH7.4). After dried in the oven, the radioactivity on the filer was measured by liquid scintillation counter. The data were analyzed using analysis soft KELL (Ver.6, BIOSOFT).
To determine the amount of non-specific binding, 20 μmol/L of PK11195 was added in place of DMSO. And to determine the affinity of the invention, 10 pmol/L to 1 μmol/L of the compound dissolved in DMSO was added in place of DMSO. The reaction was terminated as above described, then radioactivity on the filer was measured by liquid scintillation counter. […] The inhibitory constant (Ki value) was derived according to the equation of Cheng & Prusoff (Biochem. Pharmacol., 22, 3099-3108, 1973).

MBR [4] = target: T1, MBR; test: MBR antagonist activity: FGIN1-27-stimulated pregnenolone production in rat adrenocortical mitochondria; type: biochemical; conditions: FGIN1-27 1 nmol/L; MBR antagonist 0.1 pmol/L to 1 μmol/L; FIGS. 1 and 2
Source text: Horizontal axis represents the concentrations of the compound.

With `CN1C(=O)CN=C(c2ccc(Cl)cc2)c2cc(Cl)ccc21` [Ro5-4864, 7-chloro-5-(4-chlorophenyl)-1-methyl-2-oxo-2,3-dihydro-1H-benzodiazepine] as the molecule, how does the “Amount of pregnenolone production (%)” value [1] read?
The value was 123.59 ± 5.41%.

And the “MBR agonist or antagonist as judged by effect on pregnenolone production” value (“MBR agonist or antagonist as judged” below) [1]?
The value was “MBR agonists which increase pregnenolone production”.

What about the “number of fecal pellets” value ([2]; 3 mg/kg) of the same molecule?
Its value is 8.9 ± 1.16.

What about the “number of fecal pellets” value ([2]; 10 mg/kg) of the same molecule?
Its value is 9.2 ± 0.98.

And the “number of fecal pellets” value ([2]; 30 mg/kg)?
The value was 8.6 ± 0.91.

What about the “effect on number of fecal pellets vs vehicle (significance, all doses)” value (shortened to “effect … vs vehicle (significance, all doses)”) [2] of the same molecule?
The value was “No significant effect in any dose”.

And the “effect on stress-induced increase in the number of fecal pellets” value (“effect on stress-induced increase” for short) [2]?
The value was “did not produce significant effects”.

With `Clc1ccc(Cl)c(Cc2nnnn2-c2cccc(Cl)c2Cl)c1` [2(71), 5-(2,5-dichlorobenzyl)-1-(2,3-dichlorophenyl)-1H-1,2,3,4-tetrazole] as the molecule, how does the pKi (MBR [3]) read?
Its pKi is 10.10.

With `Fc1cccc(Cl)c1Cn1nnnc1-c1ccccc1C(F)(F)F` [2(14), 1-(2-chloro-6-fluorobenzyl)-5-(2-trifluoromethylphenyl)-1H-1,2,3,4-tetrazole] as the molecule, how does the “pregnenolone content relative to DMSO treated group” value [1] read?
Its value is 0.98 times.

What about the “antagonistic effect on FGIN1-27-stimulated pregnenolone production” value (MBR [4]) of the same molecule?
The value was “antagonize the steroid production stimulated by MBR agonist”.

And the “number of fecal pellets” value ([2]; 0.3 mg/kg)?
Its value is 6.1 ± 0.82.

And the “number of fecal pellets” value ([2]; 3 mg/kg)?
Its value is 6.6 ± 0.76.

What about the “number of fecal pellets” value ([2]; 30 mg/kg) of the same molecule?
Its value is 5.1 ± 0.78.

And the pKi (MBR [3])?
Its pKi is 8.48.

With `O=C(NCc1ccc(F)cc1C(F)(F)F)c1cccc(Cl)c1Cl` [1(16), N-(4-fluoro-2-trifluoromethylbenzyl)-2,3-dichlorobenzamide] as the molecule, how does the pKi (MBR [3]) read?
Its pKi is 9.72.

How did the “Amount of pregnenolone production (%)” value [1] turn out when `CCCN(CCC)C(=O)c1c(-c2ccc(Cl)cc2)nc2cc(Cl)cc(Cl)n12` [CB34, 5,7-dichloro-2-(4-chlorophenyl)-3-dipropylaminocarbonylimidazo[1,2-a]pyridine] was run?
The value was 131.36 ± 5.38%.

What about the “MBR agonist or antagonist as judged” value [1] of the same molecule?
Its value is “MBR agonists which increase pregnenolone production”.

What about the “number of fecal pellets” value ([2]; 3 mg/kg) of the same molecule?
The value was 10.2 ± 0.96.

What about the “number of fecal pellets” value ([2]; 10 mg/kg) of the same molecule?
The value was 7.6 ± 0.93.

And the “number of fecal pellets” value ([2]; 30 mg/kg)?
Its value is 8.6 ± 1.00.

And the “effect … vs vehicle (significance, all doses)” value [2]?
Its value is “No significant effect in any dose”.

And the “effect on stress-induced increase” value [2]?
The value was “did not produce significant effects”.

How did the pKi (MBR [3]) turn out when `O=C(NCc1cc(F)ccc1OCc1ccccc1)c1cccc(Cl)c1Cl` [1(110), N-(2-benzyloxy-5-fluorobenzyl)-2,3-dichlorobenzamide] was run?
Its pKi is 9.66.

How did the “MBR agonist or antagonist as judged” value [1] turn out when `CCCCCCN(CCCCCC)C(=O)Cc1c(-c2ccc(F)cc2)[nH]c2ccccc12` [FGIN1-27, 2-[2-(4-fluorophenyl)-1H-indole-3-yl]-N,N-dihexylacetamide] was run?
Its value is “MBR agonists which increase pregnenolone production”.

What about the “pregnenolone content relative to DMSO treated group” value [1] of the same molecule?
The value was 1.37 times.

Which “Amount of pregnenolone production (%)” value [1] does the source give for `CCN(Cc1ccccc1)C(=O)Cn1c(=O)n(C)c2cnc(-c3ccccc3)nc21` [AC-5216, N-benzyl-N-ethyl-2-(7-methyl-8-oxo-2-phenyl-7,8-dihydro-9H-purin-9-yl)acetamide] here?
Its value is 122.65 ± 7.56%.

And the “MBR agonist or antagonist as judged” value [1]?
The value was “MBR agonists which increase pregnenolone production”.

What about the “MBR agonist or antagonist as judged” value ([1]; listed as N-benzyl-N-ethyl-2-(7-methyl-8-oxo-2-phenyl-7,8-dihydro-9H-purin-9-yl)acetamide) of the same molecule?
Its value is “MBR antagonist”.

And the “number of fecal pellets” value ([2]; 0.3 mg/kg)?
The value was 9.6 ± 0.74.

And the “number of fecal pellets” value ([2]; 3 mg/kg)?
The value was 7.5 ± 0.63.

What about the “number of fecal pellets” value ([2]; 30 mg/kg) of the same molecule?
Its value is 9.3 ± 0.94.

And the “effect … vs vehicle (significance, all doses)” value [2]?
Its value is “No significant effect in any dose”.

And the “effect on stress-induced increase” value [2]?
Its value is “did not show an effect”.

And the “effect on stress-induced increase” value ([2]; listed as AC-5261)?
Its value is “did not produce significant effects”.

With `Clc1cccc(Cc2nnnn2-c2cccc(Cl)c2Cl)c1Cl` [2(74), 5-(2,3-dichlorobenzyl)-1-(2,3-dichlorophenyl)-1H-1,2,3,4-tetrazole] as the molecule, how does the pKi (MBR [3]) read?
Its pKi is 9.80.

`CCC(C)N(C)C(=O)c1cc2ccccc2c(-c2ccccc2Cl)n1` (stereo not shown) [PK11195, 1-(2-chlorophenyl)-N-methyl-N-(1-methylpropyl)-3-isoquinolinecarboxamide] was tested. Which “Amount of pregnenolone production (%)” value [1] did it give?
The value was 101.82 ± 1.64%.

And the “MBR agonist or antagonist as judged” value [1]?
Its value is “MBR antagonists which hardly effect on it”.

What about the “antagonistic effect on FGIN1-27-stimulated pregnenolone production” value (MBR [4]) of the same molecule?
The value was “antagonize the steroid production stimulated by MBR agonist”.

And the “number of fecal pellets” value ([2]; 0.3 mg/kg)?
The value was 6.4 ± 0.76.

What about the “number of fecal pellets” value ([2]; 3 mg/kg) of the same molecule?
Its value is 6.6 ± 0.97.

And the “number of fecal pellets” value ([2]; 30 mg/kg)?
The value was 5.5 ± 0.81.

And the “effect on stress-induced increase” value [2]?
The value was “produced significant effects”.

`Clc1cccc(-c2nnnn2Cc2cc(Cl)ccc2OCc2ccccc2)c1` [2(105), 1-(2-benzyloxy-5-chlorobenzyl)-5-(3-chlorophenyl)-1H-1,2,3,4-tetrazole] was tested. Which pKi (MBR [3]) did it give?
Its pKi is 9.14.
